Consider 31 molecules from US9440952B2, “Compounds inhibiting leucine-rich repeat kinase enzyme activity” (Merck Sharp & Dohme Corp., priority 2013, dated 2016).

This assay deals with T1, LRRK2(G2019S mutation, GST-LRRK2(amino acids 970-2527)) (Homo sapiens, UniProt Q5S007, G2019S).
T1 construct: GST-LRRK2(amino acids 970-2527); GST (N); purchased Life Technologies Corporation
In words: LRRK2 Km ATP LanthaScreen Assay. It is filed as biochemical. In outline: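 IC50 values are means of several runs in the Km-ATP LanthaScreen format, analysed by curve fitting of the LanthaScreen read-out.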
A general note: TR-FRET usually uses a lanthanide donor and a delayed reading to cut background.

Setting [1] is: Km ATP LanthaScreen Assay; LRRK2 G2019S; mean IC50 values; Examples 185-215; read-out: LRRK2 IC5).
[2] abbreviates: Km ATP LanthaScreen, mean IC50 of several tests, read-out: LRRK2 IC50.
Setting [3] is: Km ATP LanthaScreen Assay, LRRK2 G2019S, mean IC50 values, read-out: LRRK2 IC50.

Like-named read-outs stand apart in the source and are kept apart here.

T1 sequence (Q5S007 970-2527 G2019S): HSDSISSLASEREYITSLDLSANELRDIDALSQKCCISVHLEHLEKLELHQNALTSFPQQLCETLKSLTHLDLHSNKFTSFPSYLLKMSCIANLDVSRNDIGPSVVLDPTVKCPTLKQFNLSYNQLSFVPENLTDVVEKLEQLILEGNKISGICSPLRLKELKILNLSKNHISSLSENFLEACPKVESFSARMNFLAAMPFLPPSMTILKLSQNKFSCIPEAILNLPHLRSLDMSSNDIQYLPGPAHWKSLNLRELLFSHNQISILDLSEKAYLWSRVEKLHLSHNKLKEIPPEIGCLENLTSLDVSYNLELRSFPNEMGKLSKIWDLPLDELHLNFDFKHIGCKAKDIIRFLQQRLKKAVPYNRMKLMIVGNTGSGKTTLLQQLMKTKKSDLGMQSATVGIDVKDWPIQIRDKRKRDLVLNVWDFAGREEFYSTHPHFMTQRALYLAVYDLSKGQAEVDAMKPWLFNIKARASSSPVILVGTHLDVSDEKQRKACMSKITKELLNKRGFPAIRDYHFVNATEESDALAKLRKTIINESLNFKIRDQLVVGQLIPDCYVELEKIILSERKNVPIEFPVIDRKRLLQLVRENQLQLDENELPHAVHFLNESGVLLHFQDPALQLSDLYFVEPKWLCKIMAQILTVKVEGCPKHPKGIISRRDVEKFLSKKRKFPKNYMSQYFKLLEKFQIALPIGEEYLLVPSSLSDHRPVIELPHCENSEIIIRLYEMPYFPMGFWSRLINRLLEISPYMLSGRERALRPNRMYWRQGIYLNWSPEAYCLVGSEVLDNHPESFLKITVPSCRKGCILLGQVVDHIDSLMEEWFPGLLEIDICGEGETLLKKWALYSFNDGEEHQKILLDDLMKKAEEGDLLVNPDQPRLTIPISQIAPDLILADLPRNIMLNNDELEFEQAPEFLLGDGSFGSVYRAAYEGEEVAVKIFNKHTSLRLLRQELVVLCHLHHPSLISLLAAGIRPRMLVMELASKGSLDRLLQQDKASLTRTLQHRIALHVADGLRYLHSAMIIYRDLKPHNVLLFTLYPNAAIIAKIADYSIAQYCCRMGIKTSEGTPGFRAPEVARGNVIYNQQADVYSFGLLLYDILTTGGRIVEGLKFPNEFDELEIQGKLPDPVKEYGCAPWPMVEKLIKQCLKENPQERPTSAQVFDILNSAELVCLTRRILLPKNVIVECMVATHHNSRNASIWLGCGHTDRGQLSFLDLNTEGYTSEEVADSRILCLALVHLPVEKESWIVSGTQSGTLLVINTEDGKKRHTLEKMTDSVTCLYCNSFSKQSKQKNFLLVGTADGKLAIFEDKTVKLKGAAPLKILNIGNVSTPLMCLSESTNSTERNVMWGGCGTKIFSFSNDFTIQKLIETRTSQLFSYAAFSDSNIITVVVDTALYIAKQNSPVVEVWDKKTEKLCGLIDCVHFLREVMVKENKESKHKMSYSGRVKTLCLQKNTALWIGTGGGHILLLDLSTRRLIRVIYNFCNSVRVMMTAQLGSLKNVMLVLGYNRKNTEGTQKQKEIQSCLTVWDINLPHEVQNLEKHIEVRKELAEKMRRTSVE

For `CC(C)Oc1ccc2[nH]nc(-c3ccnc(N4CC(n5cccn5)C4)c3)c2c1` [Example 190], the IC50 under setting [1] came to 13.2 nM. Consider `Cn1nccc1-c1ccc2[nH]nc(-c3ccnc(N4CCOCC4)c3)c2c1` [Example 345], for which the IC50 under setting [2] was 18 nM.

With `CCOc1ccc2[nH]nc(-c3ccnc(N4CC5C(C4)C5(C#N)c4ccccn4)c3)c2c1` (stereo not shown) [Example 229], under setting [3], the IC50 came to 113 nM. Take `COc1nccnc1-c1ccc2[nH]nc(-c3ccnc(N4CCOCC4)c3)c2c1` [Example 388]: under setting [2], the IC50 was determined as 38 nM. Still for that read-out and setting: for `CC(C)Oc1cc2c(-c3ccnc(N4CCOCC4)c3)n[nH]c2cc1F` [Example 364] the value was 1.9 nM; for `Oc1ccncc1-c1ccc2[nH]nc(-c3ccnc(N4CCOCC4)c3)c2c1` [Example 118], 70 nM. The same measure, in the same setting: as for `CCCc1cnc(-c2ccc3[nH]nc(-c4ccnc(N5CCOCC5)c4)c3c2)nc1` [Example 335], the figure is 5.4 nM. Same read-out and setting: for `c1cc(-c2n[nH]c3ccc(-c4cnco4)cc23)cc(N2CCOCC2)n1` [Example 322] the value was 0.66 nM. With `CC(C)Oc1ccc2[nH]nc(-c3ccnc(N4C5CCC4COC5)c3)c2c1` [Example 282], the IC50 under setting [3] was 7.7 nM. Same read-out and setting: for `CNCc1ccc2[nH]nc(-c3ccnc(N4CCOCC4)c3)c2c1` [Example 90] the value was 302 nM; for `[2H]C1([2H])OC([2H])([2H])C([2H])([2H])N(c2cc(-c3n[nH]c4ccccc34)ccn2)C1([2H])[2H]` [Example 401], 27 nM.

With `COC1CCN(c2cc(-c3n[nH]c4ccc(-c5ccnc(O)c5)cc34)ccn2)CC1` [Example 122], under setting [3], the IC50 stood at 1.1 nM. Still for that read-out and setting: for `CCOc1ccc2[nH]nc(-c3ccnc(N4CCC(C#N)(c5ccccc5)C4)c3)c2c1` (stereo not shown) [Example 225] the value was 16.3 nM; for `CN1CCC(Nc2cc(-c3n[nH]c4ccccc34)ccn2)C1=O` (stereo not shown) [Example 68], 108 nM. Same read-out and setting: as for `FC(F)=CCCOc1ccc2[nH]nc(-c3ccnc(N4CCOCC4)c3)c2c1` [Example 81], the figure is 4.8 nM; as for `CCN(CC)CCNCc1ccc2[nH]nc(-c3ccnc(N4CCOCC4)c3)c2c1` [Example 95], 273 nM. Take `OCCc1ccc2[nH]nc(-c3ccnc(N4CCOCC4)c3)c2c1` [Example 333]: the IC50 under setting [2] stood at 30 nM.

As for `COCC(C)Oc1ccc2[nH]nc(-c3ccnc(N4CCOCC4)c3)c2c1` (stereo not shown) [Example 305], the IC50 under setting [2] came to 5.4 nM. The same measure, in the same setting: for `Oc1ccnc(F)c1-c1ccc2[nH]nc(-c3ccnc(N4CCOCC4)c3)c2c1` [Example 119] the value was 34 nM.

In the case of `CC(C)Oc1ccc2[nH]nc(-c3ccnc(N4CCCN(S(C)(=O)=O)CC4)c3)c2c1` [Example 189], under setting [1], the IC50 came out at 22.4 nM. As to `CCNc1cc(-c2n[nH]c3ccc(Nc4cccc(S(C)(=O)=O)c4)cc23)ccn1` [Example 111], under setting [3], the IC50 was determined as 35 nM.

For the molecule `COC1(C)CN(c2cc(-c3n[nH]c4ccc(OC(F)(F)F)cc34)ccn2)C1` [Example 253], the IC50 under setting [3] amounted to 201 nM. With `c1ccc2c(-c3ccnc(N4Cc5cncnc5C4)c3)n[nH]c2c1` [Example 59], the IC50 under setting [3] was determined as 37 nM. Turning to `Cc1ccc2c(-c3ccnc(N4CCOCC4)c3)n[nH]c2c1` [Example 104], the IC50 under setting [2] is 35 nM. In the case of `CC(C)Oc1ccc2[nH]nc(-c3ccnc(N4CCN(c5cnccn5)CC4)c3)c2c1` [Example 202], the IC50 under setting [1] came to 6.4 nM. Take `CN1CCC2(CCN(c3cc(-c4n[nH]c5ccccc45)ccn3)C2)C1` (stereo not shown) [Example 34]: the IC50 under setting [3] was determined as 22 nM. With `COC(=O)c1ccc2[nH]nc(-c3ccnc(N4CCOCC4)c3)c2c1` [Example 393], the IC50 under setting [2] came to 15 nM.

Take `CC(C)Oc1ccc2[nH]nc(-c3ccnc(NC(=O)CC4CCC(=O)N4)c3)c2c1` (stereo not shown) [Example 165]: the IC50 under setting [3] is 23.4 nM.

`c1cc(-c2ccc3[nH]nc(-c4ccnc(N5CCOCC5)c4)c3c2)cc(N2CCOCC2)n1` [Example 399]: the IC50 under setting [2] was determined as 74 nM. The same measure, in the same setting: as for `c1ccc2c(-c3ccnc(N4CCNCC4)c3)n[nH]c2c1` [Example 75], the figure is 80 nM. On to `CN(Cc1ccc2[nH]nc(-c3ccnc(N4CCOCC4)c3)c2c1)Cc1ccco1` [Example 94], for which the IC50 under setting [3] was determined as 13 nM.
